# Test results taken from PubChem BioAssay (NCI).
#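 Here, GI50 denotes the concentration required for 50% inhibition of growth. TGI is the concentration that stops growth completely.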
# Experiments:
# Assay in all cases: inhibition of tumour cell growth, NCI panel, 384-well format
# [1] = test system: 786-0 renal
# [2] = test system: A498 renal
# [3] = test system: A549 NSCLC
# [4] = test system: ACHN renal
# [5] = test system: BT-549 breast
# [6] = test system: CAKI-1 renal
# [7] = test system: COLO 205 colon
# [8] = test system: DU-145 prostate
# [9] = test system: EKVX NSCLC
# [10] = test system: HCC-2998 colon
# [11] = test system: HCT-15 colon
# [12] = test system: HL-60(TB) leukemia
# [13] = test system: HOP-62 NSCLC
# [14] = test system: HOP-92 NSCLC
# [15] = test system: HS 578T breast
# [16] = test system: HT29 colon
# [17] = test system: IGROV1 ovarian
# [18] = test system: KM12 colon
# [19] = test system: M14 melanoma
# [20] = test system: MALME-3M melanoma
# [21] = test system: MCF7 breast
# [22] = test system: MDA-MB-231 breast
# [23] = test system: MDA-MB-435 melanoma
# [24] = test system: MDA-MB-468 breast
# [25] = test system: MOLT-4 leukemia
# [26] = test system: NCI-H226 lung
# [27] = test system: NCI-H23 lung
# [28] = test system: NCI-H322M lung
# [29] = test system: NCI-H460 NSCLC
# [30] = test system: NCI-H522 lung
# [31] = test system: NCI/ADR-RES ovarian
# [32] = test system: OVCAR-3 ovarian
# [33] = test system: OVCAR-4 ovarian
# [34] = test system: OVCAR-5 ovarian
# [35] = test system: OVCAR-8 ovarian
# [36] = test system: PC-3 prostate
# [37] = test system: RPMI-8226 leukemia
# [38] = test system: RXF 393 renal
# [39] = test system: SF-268 CNS
# [40] = test system: SF-295 CNS
# [41] = test system: SF-539 CNS
# [42] = test system: SK-MEL-2 melanoma
# [43] = test system: SK-MEL-28 melanoma
# [44] = test system: SK-MEL-5 melanoma
# [45] = test system: SK-OV-3 ovarian
# [46] = test system: SN12C renal
# [47] = test system: SNB-19 CNS
# [48] = test system: SNB-75 CNS
# [49] = test system: SR leukemia
# [50] = test system: SW-620 colon
# [51] = test system: T-47D breast
# [52] = test system: TK-10 renal
# [53] = test system: U251 glioblastoma
# [54] = test system: UACC-257 melanoma
# [55] = test system: UACC-62 melanoma
compound,measurement,setting,value
CC(C)n1nc(-c2cc3cc(O)ccc3[nH]2)c2c(N)ncnc21,GI50,[1],1.23 µM
same,TGI,[1],3.94 µM
same,GI50,[2],0.119 µM
same,TGI,[2],0.764 µM
same,GI50,[3],0.415 µM
same,TGI,[3],2.37 µM
same,GI50,[4],0.77 µM
same,TGI,[4],2.64 µM
same,GI50,[5],0.6 µM
same,TGI,[5],2.31 µM
same,GI50,[6],0.328 µM
same,TGI,[6],1.81 µM
same,GI50,[7],0.348 µM
same,TGI,[7],1.18 µM
same,GI50,[8],1.34 µM
same,TGI,[8],11 µM
same,GI50,[9],0.546 µM
same,TGI,[9],3.05 µM
same,GI50,[10],1.38 µM
same,TGI,[10],10.5 µM
same,GI50,[11],0.605 µM
same,TGI,[11],11.9 µM
same,GI50,[12],1.76 µM
same,TGI,[12],3.99 µM
same,GI50,[13],0.395 µM
same,TGI,[13],1.95 µM
same,GI50,[14],0.345 µM
same,TGI,[14],1.62 µM
same,GI50,[15],0.221 µM
same,TGI,[15],0.808 µM
same,GI50,[16],1.18 µM
same,TGI,[16],8.43 µM
same,GI50,[17],0.205 µM
same,TGI,[17],0.642 µM
same,GI50,[18],0.448 µM
same,TGI,[18],6.43 µM
same,GI50,[19],0.354 µM
same,TGI,[19],2.01 µM
same,GI50,[20],0.0416 µM
same,TGI,[20],0.271 µM
same,GI50,[21],0.229 µM
same,TGI,[21],7.96 µM
same,GI50,[22],0.338 µM
same,TGI,[22],3.41 µM
same,GI50,[23],0.714 µM
same,TGI,[23],3.3 µM
same,GI50,[24],0.201 µM
same,TGI,[24],0.79 µM
same,GI50,[25],0.329 µM
same,TGI,[25],1.62 µM
same,GI50,[26],0.374 µM
same,TGI,[26],1.29 µM
same,GI50,[27],0.952 µM
same,TGI,[27],3.22 µM
same,GI50,[28],0.391 µM
same,TGI,[28],3.2 µM
same,GI50,[29],0.147 µM
same,TGI,[29],1.4 µM
same,GI50,[30],0.104 µM
same,TGI,[30],0.701 µM
same,GI50,[31],0.511 µM
same,TGI,[31],2.2 µM
same,GI50,[32],0.514 µM
same,TGI,[32],4.94 µM
same,GI50,[33],0.631 µM
same,TGI,[33],2.82 µM
same,GI50,[34],0.421 µM
same,TGI,[34],3.58 µM
same,GI50,[35],0.988 µM
same,TGI,[35],5.5 µM
same,GI50,[36],0.241 µM
same,TGI,[36],1.25 µM
same,GI50,[37],0.0916 µM
same,TGI,[37],0.236 µM
same,GI50,[38],0.372 µM
same,TGI,[38],1.61 µM
same,GI50,[39],1.84 µM
same,TGI,[39],5.93 µM
same,GI50,[40],1.01 µM
same,TGI,[40],3.8 µM
same,GI50,[41],1.03 µM
same,TGI,[41],2.94 µM
same,GI50,[42],0.718 µM
same,TGI,[42],1.8 µM
same,GI50,[43],0.315 µM
same,TGI,[43],1.02 µM
same,GI50,[44],0.246 µM
same,TGI,[44],1.06 µM
same,GI50,[45],0.208 µM
same,TGI,[45],0.652 µM
same,GI50,[46],0.382 µM
same,TGI,[46],4.19 µM
same,GI50,[47],2.87 µM
same,TGI,[47],12.1 µM
same,GI50,[48],0.265 µM
same,TGI,[48],1.56 µM
same,GI50,[49],0.285 µM
same,TGI,[49],0.768 µM
same,GI50,[50],4.2 µM
same,TGI,[50],14.6 µM
same,GI50,[51],0.107 µM
same,TGI,[51],0.48 µM
same,GI50,[52],0.327 µM
same,TGI,[52],1.81 µM
same,GI50,[53],1.89 µM
same,TGI,[53],6.01 µM
same,GI50,[54],1.14 µM
same,TGI,[54],5.39 µM
same,GI50,[55],0.507 µM
same,TGI,[55],2.08 µM
